In PubChem BioAssay (NCI):
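Cells were grown in 96-well plates and exposed to each compound for 48 hours at five concentrations; endpoints were interpolated linearly between bracketing concentrations, or set to the highest concentration if not reached. At the TGI there is no net growth.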

What was measured:
Test in all cases: NCI tumour cell line growth inhibition, 48 h
DLD-1 colon = system: DLD-1 colon
DMS 114 small cell lung = system: DMS 114 small cell lung
KM20L2 colon = system: KM20L2 colon
HOP-18 NSCLC = system: HOP-18 NSCLC
P388 leukemia = system: P388 leukemia
P388/ADR leukemia = system: P388/ADR leukemia
SN12K1 renal = system: SN12K1 renal
RXF-631 renal = system: RXF-631 renal

Row | SMILES | TGI (DLD-1 colon) [µM] | TGI (DMS 114 small cell lung) [µM] | TGI (KM20L2 colon) [µM] | TGI (HOP-18 NSCLC) [µM] | TGI (P388 leukemia) [µM] | TGI (P388/ADR leukemia) [µM] | TGI (SN12K1 renal) [µM] | TGI (RXF-631 renal) [µM]
1 | CC12C=CC(=O)C=C1CCC1C3CCC(O)(C(=O)CO)C3(C)CC(O)C12F (stereo not given) | > 100 | > 100 | > 100 |  |  |  |  | 
2 | CN1C(c2ccccc2)CC(=O)C(N)C1c1ccccc1 (stereo not given) | > 100 |  | > 90.6 | > 100 |  |  |  | 
3 | Cn1c(-c2ccccc2)cc(-c2cccs2)c1-c1cccs1 | > 100 | > 100 | > 100 | > 100 | > 100 | > 100 | > 41.9 | 
4 | Cc1cc(C)nc(NS(=O)(=O)c2ccc(NC(=O)c3cccc4c(Nc5ccc(S(=O)(=O)Nc6cc(C)on6)cc5)c5ccccc5nc34)cc2)n1 | > 100 | 39.8 |  |  |  |  |  | 
5 | C=C(C)C1Cc2c(c3ccccc3n(C)c2=O)O1 (stereo not given) | > 100 | > 100 | > 100 | > 100 |  |  |  | > 100
